One series concerns VHL protein. Further details: method as in PMID 28288108, PMID 30721025. Particulars: cited from earlier work.
The next series in a line: in vitro. Particulars: PAMPA. A general note: In PAMPA a lipid-coated filter parts donor from acceptor wells.
Another series addresses T1, VHL (Homo sapiens, UniProt P40337).
T1 construct: each well solution containing 15 nM VCB
Nature of the series: Fluorescence polarization (FP) competitive binding assay. The note with it: 15 nM VCB protein, 10 nM FAM-labeled HIF-1α peptide JC9, read-out: Kd (FP-derived). In general terms: Polarisation of emitted light reports the rotation of a fluorescent probe.

For series [1] the following is noted: for LPE: LPE = LogD(dec/w) – 1.06(ALogP) + 5.47.
Series [2] has as its system MV4;11. The note with it: cited from earlier work; for pEC50 (MV4;11): cell proliferation, 48 h treatment, ref Chan et al. 2018 (ref1).
In series [3] the test system is HL60. Further details: method as in Chan et al. 2018 (ref1). Particulars: cell proliferation, 48 h treatment; ref Chan et al. 2018 (ref1); cited from earlier work.
Series [4] deals with MV4;11. Nature of the series: Cell proliferation assay, MV4;11. The format is cell-based. Particulars: Homo sapiens, 48 h treatment, read-out: pEC50 (MV4;11) (converted). From the text:
(§1) IX. Cell proliferation assay
(§2) Cell proliferation data were collected as described in Chan et al. 2018 pg. 511 titled “Cell

Series [5] has as its system HL60. The experiment in a line: Cell proliferation assay, HL60. It is filed as cell-based. The note with it: for EC50: Homo sapiens, HL-60, 48 h treatment, read-out: pEC50 (HL60) (converted); for pEC50 (HL60): 48 h treatment.
Text: as §1, §2

For a further series, the system named is VHL E3 ubiquitin ligase. Details: method as in PMID 29018234. The note with it: cited from earlier work.

Molecules are shown by their SMILES. Read-outs that look alike come from different tables or passages of the source.

On to `CC(=O)N[C@H](C(=O)N1C[C@H](O)C[C@H]1C(=O)NCc1ccc(-c2scnc2C)cc1)C(C)(C)SCCCCCCNC(=O)C[C@@H]1N=C(c2ccc(Cl)cc2)c2c(sc(C)c2C)-n2c(C)nnc21` [AT1], for which, in the series on VHL protein, the “fold lower binding affinity for the VHL protein compared to 8” value is 5 fold.
With `Cc1sc2c(c1C)C(c1ccc(Cl)cc1)=N[C@@H](CC(=O)OC(C)(C)C)c1nnc(C)n1-2` [Compound 1, reference compound], the Papp in the series “in vitro” (pH 7.4, PAMPA permeability (Pe)) was at least 5 ×10⁻⁶ cm/s.
In the case of `Cc1ncsc1-c1ccc(CNC(=O)[C@@H]2C[C@@H](O)CN2C(=O)[C@@H](OC(=O)Cc2ccccc2)C(C)(C)C)cc1` [Compound 3], the Kd at VHL amounted to 800 nM.
In the case of `Cc1ncsc1-c1ccc(CNC(=O)[C@@H]2C[C@@H](O)CN2C(=O)[C@@H](NC(=O)Cc2ccccc2)C(C)(C)C)cc1` [Compound 4], in series [1], the LPE is 2.0. For the same molecule, in “in vitro” (pH 7.4), the apparent permeability coefficient (Papp) is at least 5 ×10⁻⁶ cm/s and the Papp at 7 h was determined as 8.6 ×10⁻⁶ cm/s.
On to `Cc1ncsc1-c1ccc(CNC(=O)[C@@H]2C[C@@H](O)CN2C(=O)[C@@H](OC(=O)CCOCCOCCOCCNC(=O)Cc2ccccc2)C(C)(C)C)cc1` [Compound 5], for which, for the setting “pH 7.4”, the “fold more permeable than 6 (PAMPA)” value stood at 1.5 fold. In series [1] (comparator compound 3), the “ΔLPE (lower than 3)” value was 0.8. The molecule further had a Papp at 7 h in “in vitro” (pH 7.4) of 0.3 ± 0.1 ×10⁻⁶ cm/s.
As to `Cc1ncsc1-c1ccc(CNC(=O)[C@@H]2C[C@@H](O)CN2C(=O)[C@@H](NC(=O)CCOCCOCCOCCNC(=O)Cc2ccccc2)C(C)(C)C)cc1` [Compound 6], the “ΔLPE (lower than 4)” value in series [1] (comparator compound 4) is 0.4. Moreover, in “in vitro” (pH 7.4), the Papp at 7 h worked out at 0.2 ± 0.03 ×10⁻⁶ cm/s.
Take `Cc1ncsc1-c1ccc(CNC(=O)[C@@H]2C[C@@H](O)CN2C(=O)[C@@H](NC(=O)COCCOCCNC(=O)C[C@@H]2N=C(c3ccc(Cl)cc3)c3c(sc(C)c3C)-n3c(C)nnc32)C(C)(C)C)cc1` [Compound 7]: under “pH 7.4”, the “fold more permeable than 8 (PAMPA)” value came out at 20 fold; the “fold more permeable than 9 (PAMPA)” value is listed as 100 fold; the “fold more permeable than 15 (PAMPA)” value is 120 fold; the “fold more permeable than 17 and 14 (PAMPA)” value is recorded as 300 fold. In addition, in series [1], the LPE was determined as 0.4. For the same molecule, the “pEC50 (MV4;11)” value in the series on MV4;11 [2] is listed as 6.75. Moreover, in the series on HL60 [3], the “pEC50 (HL60)” value was 5.84. In “in vitro” (pH 7.4), this molecule returned a Papp above 0.6 ×10⁻⁶ cm/s and an apparent permeability (Papp) at 15 h of 0.6 ×10⁻⁶ cm/s.
Regarding `Cc1ncsc1-c1ccc(CNC(=O)[C@@H]2C[C@@H](O)CN2C(=O)[C@@H](NC(=O)COCCOCCOCCNC(=O)C[C@@H]2N=C(c3ccc(Cl)cc3)c3c(sc(C)c3C)-n3c(C)nnc32)C(C)(C)C)cc1` [Compound 8], where the note is “pH 7.4”, the “fold difference in permeability vs 16 (PAMPA)” value worked out at 10 fold and the “fold less permeable than 7 (PAMPA)” value came to 20 fold. Also, the “activity relative to 7 (cellular antiproliferation)” value in the series with MV4;11 [2] (SI Table 2, MV4;11 and HL60) is listed as “one log unit”. Besides, in the series with MV4;11 [2], the “pEC50 (MV4;11)” value was 7.57. For the same molecule, the “pEC50 (HL60)” value in the series on HL60 [3] is 6.8. In “in vitro” (pH 7.4), the Papp was above 0.6 ×10⁻⁶ cm/s and the Papp at 15 h worked out at 0.03 ± 0.01 ×10⁻⁶ cm/s.
In the case of `Cc1ncsc1-c1ccc(CNC(=O)[C@@H]2C[C@@H](O)CN2C(=O)[C@@H](NC(=O)[C@H](Cc2ccccc2)NC(=O)COCCOCCOCCNC(=O)C[C@@H]2N=C(c3ccc(Cl)cc3)c3c(sc(C)c3C)-n3c(C)nnc32)C(C)(C)C)cc1` [Compound 9], the EC50 in the series with MV4;11 [4] is 457 nM; in the series with HL60 [5], 4170 nM. Besides, the “fold decrease in permeability vs 8 (PAMPA)” value (pH 7.4) amounted to 5 fold. Moreover, the LPE in series [1] is -1.1. For the same molecule, the “decrease in LPE vs 8” value in series [1] (addition of a Phe residue to 8) is 1.2 unit. Besides, the Papp at 15 h in the series “in vitro” (pH 7.4) turned out to be 0.006 ×10⁻⁶ cm/s.
Consider `CC(=O)N1c2ccc(-c3ccc(C(=O)NCCOCCOCC(=O)N[C@H](C(=O)N4C[C@H](O)C[C@H]4C(=O)NCc4ccc(-c5scnc5C)cc4)C(C)(C)C)cc3)cc2[C@H](Nc2ccc(Cl)cc2)C[C@@H]1C` [Compound 10], for which, where the note is “pH 7.4”, the “fold difference in permeability vs 11 (PAMPA)” value is reported as 2 fold. In addition, in series [1], the LPE is -0.1. For the same molecule, in the series on MV4;11 [2], the “pEC50 (MV4;11)” value is reported as 6.24. In addition, the “pEC50 (HL60)” value in the series with HL60 [3] is listed as 6.17. The molecule further came in with a Papp at 15 h in the series “in vitro” (pH 7.4) of 0.3 ± 0.1 ×10⁻⁶ cm/s.
With `CC(=O)N1c2ccc(-c3ccc(C(=O)NCCOCCOCCOCCOCC(=O)N[C@H](C(=O)N4C[C@H](O)C[C@H]4C(=O)NCc4ccc(-c5scnc5C)cc4)C(C)(C)C)cc3)cc2[C@H](Nc2ccc(Cl)cc2)C[C@@H]1C` [Compound 11], in series [1], the LPE is listed as 0.2. For the same molecule, the “pEC50 (MV4;11)” value in the series with MV4;11 [2] is 7.08. In the series on HL60 [3], the “pEC50 (HL60)” value is on record as 6.37. The molecule further gave an apparent permeability coefficient (Papp) at 15 h in the series “in vitro” (pH 7.4) of 0.16 ± 0.14 ×10⁻⁶ cm/s.
For the molecule `Cc1ncsc1-c1ccc(CNC(=O)[C@@H]2C[C@@H](O)CN2C(=O)[C@@H](NC(=O)COCCOCCOCCOCC(=O)N[C@H](C(=O)N2C[C@H](O)C[C@H]2C(=O)NCc2ccc(-c3scnc3C)cc2)C(C)(C)C)C(C)(C)C)cc1` [Compound 12], in series [1] (listed as CM9 (12)), the LPE is recorded as 0.8. In addition, the Papp in “in vitro” (pH 7.4) stood at 0.009 ×10⁻⁶ cm/s.
For `Cc1ncsc1-c1ccc(CNC(=O)[C@@H]2C[C@@H](O)CN2C(=O)[C@@H](NC(=O)COCCOCCOCCOCCOCCOCC(=O)N[C@H](C(=O)N2C[C@H](O)C[C@H]2C(=O)NCc2ccc(-c3scnc3C)cc2)C(C)(C)C)C(C)(C)C)cc1` [Compound 13], the “permeability relative to 12 (PAMPA)” value is “reduced by half”. For the same molecule, in series [1] (listed as CM11 (13)), the LPE turned out to be 0.6. The “activity relative to 12 (cellular protein degradation assay)” value in the series on VHL E3 ubiquitin ligase is listed as “two log units”. For the same molecule, the Papp in “in vitro” (pH 7.4) is 0.005 ×10⁻⁶ cm/s.
With `Cc1ncsc1-c1ccc(CNC(=O)[C@@H]2C[C@H](O)CN2C(=O)[C@@H](NC(=O)COCCOCCOCCOCCOCCOCC(=O)N[C@H](C(=O)N2C[C@@H](O)C[C@H]2C(=O)NCc2ccc(-c3scnc3C)cc2)C(C)(C)C)C(C)(C)C)cc1` [Compound 14], the LPE in series [1] (listed as CMP98 (14)) is listed as 1.7. For the same molecule, the Papp at 15 h in the series “in vitro” (pH 7.4) came out at 0.002 ± 0.0002 ×10⁻⁶ cm/s.
As for `CC(=O)N[C@H](C(=O)N1C[C@H](O)C[C@H]1C(=O)NCc1ccc(-c2scnc2C)cc1)C(C)(C)SCCOCCNC(=O)C[C@@H]1N=C(c2ccc(Cl)cc2)c2c(sc(C)c2C)-n2c(C)nnc21` [Compound 15], the EC50 was 7240 nM with MV4;11 [4] and 12600 nM in the series on HL60 [5]. The LPE in series [1] is −2.3. Further, in “in vitro” (pH 7.4), the Papp at 15 h turned out to be 0.005 ± 0.003 ×10⁻⁶ cm/s.
Consider `CC(=O)N[C@H](C(=O)N1C[C@H](O)C[C@H]1C(=O)NCc1ccc(-c2scnc2C)cc1)C(C)(C)SCCOCCOCCNC(=O)C[C@@H]1N=C(c2ccc(Cl)cc2)c2c(sc(C)c2C)-n2c(C)nnc21` [Compound 16], for which the “permeability relative to 15 (PAMPA)” value was “reduced by half”. In the series with MV4;11 [4], the EC50 was 692 nM. For the same molecule, the “pEC50 (HL60)” value with HL60 [5] is given as “BLQ”. In addition, the “PAMPA permeability (Pe)” value (pH 7.4) is listed as 0.003 ± 8.4x10-5. The LPE in series [1] is recorded as −2.6. For the same molecule, the Papp at 15 h in the series “in vitro” (pH 7.4) was found to be 0.003 ×10⁻⁶ cm/s.
As for `CC(=O)N[C@H](C(=O)N1C[C@H](O)C[C@H]1C(=O)NCc1ccc(-c2scnc2C)cc1)C(C)(C)SCCCCNC(=O)C[C@@H]1N=C(c2ccc(Cl)cc2)c2c(sc(C)c2C)-n2c(C)nnc21` [Compound 17], the EC50 in the series with MV4;11 [4] is 617 nM. For the same molecule, the “pEC50 (HL60)” value in the series with HL60 [5] is given as “BLQ”. The “fold less permeable than 15 (PAMPA)” value (pH 7.4) was 2.5 fold. The LPE in [1] is -3.1. For the same molecule, in series [1] (alkyl-linked 17 vs PEG counterpart 15), the “LPE lower than 15 (ΔLPE)” value amounted to 0.8. The molecule also displayed a Papp at 15 h in “in vitro” (pH 7.4) of 0.002 ×10⁻⁶ cm/s.

The Papp is a coefficient for how fast a substance crosses the barrier. A word on the Kd: it is the equilibrium constant for the complex coming apart.
